Drawing on PubChem BioAssay (NCI), this text covers TGI and GI50 for 40 compounds.

SMILES strings stand for the structures. ≈ marks a conversion by molar mass, not a printed value.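 1) Cells in 96-well plates. 2) Compound, 48 h, 5 concentrations. 3) Linear interpolation between surrounding doses. 4) Unreached endpoint = highest concentration. Here, GI50 denotes the concentration required for 50% inhibition of growth. TGI: concentration producing complete growth inhibition.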

Assay in all cases: NCI tumour cell line growth inhibition, 48 h
The subject of assay [1] is SNB-75 CNS.
Assay [2] has as its system EKVX NSCLC.
Assay [3] concerns U251 CNS.
Assay [4] deals with HOP-62 NSCLC.
Assay [5] has as its system KM12 colon.
Assay [6] concerns A498 renal.
The test system of assay [7] is HS 578T breast.

As for `O=C1CC(c2ccccc2)C2(C(=O)NC(=S)NC2=O)C(c2ccccc2)C1` (configuration not stated), the TGI in assay [1], in assay [2], in assay [3], in assay [4] and in assay [5] was greater than 75 µM each time.
Take `COc1ccc(C2OC(=O)c3ccc4ccccc4c32)c(C)c1` (configuration not stated): the TGI in assay [1] was 44.7 µM; in assay [6], 66.2 µM; in assay [2] it was greater than 87.8 µM; in assay [3], 30.6 µM; in assay [4], greater than 90.2 µM; in assay [7] it was 45.2 µM. In assay [5], this compound displayed a TGI greater than 45.6 µM.
`C=C(C(=O)O)[C@@H]1C[C@@H]2O[C@H]1[C@@H](O)[C@@H](C)CCCC(C)=CCC[C@@]2(C)O`: the TGI in assay [1], in assay [6], in assay [2], in assay [3], in assay [4] and in assay [7] was greater than 100 µM in each case. Also, the TGI in assay [5] was greater than 100 µM.
Regarding `O=C(/C=C/c1ccccc1)CSc1ncn[nH]1`, the TGI in assay [1], in assay [2], in assay [3], in assay [4] and in assay [5] was greater than 100 µM throughout.
Regarding `O=C(O)Cc1ccc(Nc2nc3cc(C(F)(F)F)ccc3nc2C(=O)O)cc1`, the TGI in assay [1], in assay [6], in assay [2], in assay [3], in assay [4] and in assay [7] was greater than 100 µM throughout. In assay [5], this compound displayed a TGI greater than 100 µM.
As to `Cc1ccc(/C=N/n2c(-c3ccc(C)cc3)n[nH]c2=O)cc1`, the TGI is greater than 100 µM in assay [1]; 95.1 µM in assay [6]; greater than 100 µM in assay [2]; greater than 100 µM in assay [3]; greater than 100 µM in assay [4]; greater than 100 µM in assay [7]. In addition, the TGI in assay [5] is greater than 100 µM.
With `c1cc2c(s1)-c1sccc1C21OCCO1`, the TGI in assay [2], in assay [3], in assay [4] and in assay [5] was greater than 100 µM in each case.
Regarding `COC(=O)CCC1=C(CC(=O)OC)C(C)(OC)N=C1NC(=O)OCc1ccccc1` (configuration not stated), the TGI in assay [1], in assay [6], in assay [2], in assay [3], in assay [4] and in assay [5] was greater than 100 µM in each case.
In the case of `COC(=O)c1ccc(/C=C2\Oc3ccccc3C2=O)cc1`, the TGI in assay [1], in assay [2], in assay [3], in assay [4], in assay [7] and in assay [5] was greater than 100 µM each time.
Turning to `COc1cc2c(cc1OC)C(=O)N(c1ccc(O)cc1)C2=O`, the TGI in assay [6], in assay [2], in assay [3], in assay [4] and in assay [7] was greater than 100 µM throughout.
As to `CCCC(CCC(N)=O)(CCC(N)=O)[N+](=O)[O-]`, the TGI in assay [1], in assay [2], in assay [3], in assay [7] and in assay [5] was greater than 100 µM throughout.
On to `Cc1c2c3ccccc3nc-2n(C)c2ccccc12`, for which the TGI came out at 7.75 µM in assay [1]; 10.3 µM in assay [2]; 12.7 µM in assay [3]; 31.9 µM in assay [4]; 20 µM in assay [7]; 7.91 µM in assay [5].
Take `CCOC(=O)C1=C(O)C2C3CC4C2C(O)=C(C(=O)OCC)C2C1C3C42` (configuration not stated): the TGI in assay [1], in assay [6], in assay [2], in assay [3], in assay [4] and in assay [7] was greater than 100 µM each time. The compound further had a TGI in assay [5] greater than 100 µM.
For the compound `NC(N)=NC(N)=Nc1ccc(S(=O)(=O)O)cc1`, the TGI in assay [1], in assay [6], in assay [2], in assay [3], in assay [4] and in assay [7] was greater than 100 µM in each case. Further, the TGI in assay [5] is greater than 100 µM.
In the case of `O=C(OC1C2OC(=O)c3cc(O)c(O)c(O)c3Oc3cc4c(c(O)c3O)-c3c(cc(O)c(O)c3O)C(=O)OCC3OC(O)C(OC(=O)c5cc(O)c(O)c(O)c5Oc5cc6c(c(O)c5O)-c5c(cc(O)c(O)c5O)C(=O)OC1C(COC6=O)OC2O)C(OC(=O)c1cc(O)c(O)c(O)c1)C3OC4=O)c1cc(O)c(O)c(O)c1` (configuration not stated), the TGI in assay [2] stood at 37.9 µM; in assay [4], 54.3 µM; in assay [7], 63.8 µM; in assay [5], 16.2 µM.
Consider `c1cc2c(cc1NC1=NCCO1)OCO2`, for which the TGI in assay [1], in assay [6], in assay [2], in assay [3], in assay [4] and in assay [7] was greater than 100 µM in each case. In assay [5], this compound returned a TGI greater than 100 µM.
For `COc1cc(C(C)O)c(S(=O)(=O)CC(C)O)nn1` (configuration not stated), the TGI in assay [6], in assay [2], in assay [7] and in assay [5] was greater than 100 µM throughout.
For the compound `COc1ccc(-n2c(N)c(C#N)[nH]c2=O)cc1`, the TGI in assay [1], in assay [6], in assay [2], in assay [3], in assay [4] and in assay [7] was greater than 10 µM in each case. Further, the TGI in assay [5] was greater than 10 µM.
For `O=CNNC(=O)Nc1cccc2ccccc12`, the TGI in assay [1], in assay [2], in assay [3], in assay [4], in assay [7] and in assay [5] was greater than 100 µM in each case.
For `Cc1ccc(NC=O)c(-c2c(N)[nH]c(=S)[nH]c2=O)c1`, the TGI in assay [1], in assay [6], in assay [2], in assay [4], in assay [7] and in assay [5] was greater than 100 µM throughout.
For `O=C1/C(=C\c2cccc(Oc3ccccc3)c2)SC(c2ccccc2)N1c1ccccc1` (configuration not stated), the TGI in assay [6], in assay [2], in assay [3], in assay [4], in assay [7] and in assay [5] was greater than 100 µM throughout.
For `CCN1CCC(O)(c2ccc(Oc3ccc(F)cc3)cc2)C(C(=O)c2ccc(Oc3ccc(F)cc3)cc2)C1` (configuration not stated), the TGI in assay [1] was found to be 30.3 µM; in assay [2], 31.8 µM; in assay [3] it was 30.1 µM; in assay [4], 30.1 µM; in assay [7] it was 38.4 µM; in assay [5], 18.3 µM.
Take `CN1CN(c2ccccc2)C2(CCN(CC(C)(c3ccc(F)cc3)C3OCCCO3)CC2)C1=O` (configuration not stated): the TGI in assay [1] is 46.6 µM; in assay [2], 54.8 µM; in assay [3], 26.6 µM; in assay [4], 30.7 µM; in assay [5], 31.1 µM.
The corresponding values for `CS(=O)(=O)c1nc(-c2cc3c(c(S(C)(=O)=O)n2)CCCC3)cc2c1CCCCC2` are greater than 100 µM, greater than 100 µM, greater than 100 µM, greater than 100 µM and greater than 100 µM.
As for `CC1=NC2=Nc3nc(C)cc[n+]3CN2C=C1`, the TGI was greater than 100 µM in assay [1]; greater than 100 µM in assay [6]; 75.8 µM in assay [2]; greater than 100 µM in assay [3]; greater than 100 µM in assay [4]; greater than 100 µM in assay [7].
In the case of `C/C(=N\N=C(\N)SB(F)F)c1ccc2ccccc2c1`, the TGI in assay [1], in assay [6], in assay [2], in assay [3], in assay [7] and in assay [5] was greater than 100 µM throughout.
In the case of `CC(=O)OC12C3C4C1C1C2C3C41OC(C)=O` (configuration not stated), the TGI in assay [1], in assay [6], in assay [2], in assay [3], in assay [4] and in assay [5] was greater than 100 µM throughout.
Regarding `CO/N=C(/C)c1cccc(Nc2nc3ccccc3c3[nH]c4ccccc4c23)c1`, the TGI was 18.6 µM in assay [1]; 30.9 µM in assay [3]; 21.7 µM in assay [4]; 35.8 µM in assay [7]; 14.2 µM in assay [5].
Consider `CC(=O)c1c(C)nc(SSc2nc(C)c(C(C)=O)c(-c3ccc(Cl)cc3)c2C#N)c(C#N)c1-c1ccc(Cl)cc1`, for which the GI50 in assay [1] was 23.3 µg/mL (≈ 38.7 µM); in assay [2], 145 µg/mL (≈ 241 µM); in assay [3] it was 53.6 µg/mL (≈ 88.8 µM); in assay [4], 47.5 µg/mL (≈ 78.7 µM); in assay [7], 22.9 µg/mL (≈ 37.9 µM); in assay [5], 133 µg/mL (≈ 220 µM). Further, the TGI in assay [1] is 80.3 µg/mL; in assay [2] it was greater than 150 µg/mL; in assay [3] it was greater than 150 µg/mL; in assay [4] it was greater than 150 µg/mL; in assay [7] it was 54.8 µg/mL; in assay [5] it was greater than 150 µg/mL.
Take `CCOC(=O)c1nnsc1N/N=C\c1ccc([N+](=O)[O-])cc1`: the TGI in assay [1], in assay [2], in assay [3], in assay [4], in assay [7] and in assay [5] was greater than 100 µM throughout.
On to `COc1c(/C=C/C(C)(C)O)cc(C2CC(=O)c3c(O)cc(O)cc3O2)cc1CC=C(C)C` (configuration not stated), for which the TGI in assay [1] was 22.8 µM; in assay [6], 16.8 µM; in assay [3], 14.4 µM; in assay [7], 24.9 µM; in assay [5], 20.7 µM.
Regarding `O=C(O)CCC(=O)c1ccc2c(c1)C(C(=O)O)CC2` (configuration not stated), the TGI in assay [6], in assay [2], in assay [3], in assay [4], in assay [7] and in assay [5] was greater than 100 µM each time.
On to `Cc1ccc(SC2C(=O)C3CC(OCc4ccccc4)C2(C)C3(C)C)cc1` (configuration not stated), for which the TGI in assay [6], in assay [2], in assay [3], in assay [4], in assay [7] and in assay [5] was greater than 100 µM each time.
With `CCOC(=O)c1c(N=P(c2ccccc2)(c2ccccc2)c2ccccc2)nnc(-c2ccccc2)c1-c1ccccc1`, the TGI was greater than 100 µM in assay [1]; 99.3 µM in assay [6]; greater than 100 µM in assay [2]; greater than 100 µM in assay [3]; greater than 100 µM in assay [4]; greater than 100 µM in assay [5].
For the compound `c1ccc(C(NCC2CCO2)(c2ccccc2)c2ccccc2)cc1` (configuration not stated), the TGI in assay [1] was determined as 28.8 µM; in assay [6], 36.1 µM; in assay [2], 30.8 µM; in assay [3] it was 54 µM; in assay [5] it was 28.8 µM.
Regarding `CC1(C)OC2[C@@H](CO[C@@]3([C@@H](O)CCO)OC(C)(C)O[C@@H]23)O1` (some centres not stated), the TGI in assay [1], in assay [2], in assay [3], in assay [4] and in assay [5] was greater than 100 µM throughout.
Take `C=C1C(=O)O[C@H]2C[C@@]3(COC(C)=O)C=COC=C(COC(=O)C(C)C)C3CC12` (some centres not stated): the TGI in assay [1] was 67.5 µM; in assay [2], greater than 100 µM; in assay [3] it was greater than 100 µM; in assay [4] it was greater than 100 µM; in assay [7] it was greater than 100 µM; in assay [5] it was greater than 100 µM.
Regarding `O=S(=O)(O)c1cc(N=Nc2c(O)ccc3ccccc23)ccc1/C=C/c1ccc(N=Nc2c(O)ccc3ccccc23)cc1S(=O)(=O)O`, the TGI in assay [1], in assay [2], in assay [3], in assay [4], in assay [7] and in assay [5] was greater than 100 µM in each case.
As to `CSc1ccc(-c2cc(-c3nc4ccccc4[nH]3)no2)cc1`, the TGI is greater than 100 µM in assay [1]; greater than 100 µM in assay [6]; greater than 100 µM in assay [2]; greater than 100 µM in assay [4]; greater than 100 µM in assay [7]; 68.5 µM in assay [5].
On to `Cc1nc(CC#N)n[nH]1`, for which the TGI in assay [1], in assay [2], in assay [3], in assay [4] and in assay [5] was greater than 100 µM in each case.
